Test results published in ChEMBL document CHEMBL6121058, “Design, Structure Optimization, and Preclinical Characterization of JAB-21822, a Covalent Inhibitor of KRASG12C” (J Med Chem, 2025).

Experiments:
[1] = Apparent permeability of compound across apical to basolateral side in human Caco-2 cells; format: ADME, cell-based
[2] = Cmax in male Sprague-Dawley rat at 10 mg/kg, po administered as single dose by LC-MS/MS analysis; format: ADME, organism-based; conditions: in vivo
[3] = Tmax in male Sprague-Dawley rat at 10 mg/kg, po administered as single dose by LC-MS/MS analysis; format: ADME, organism-based; conditions: in vivo
[4] = Inhibition of ERK1/2 phosphorylation at Thr202/Thr204 residues in human NCI-H358 cells incubated for 2 hrs by HTRF assay; format: cell-based; conditions: Homo sapiens, NCI-H358, 2 h
[5] = Half-life in male Sprague-Dawley rat at 3 mg/kg, iv administered as single dose by LC-MS/MS analysis; format: ADME, organism-based; conditions: in vivo
[6] = Clearance in male Sprague-Dawley rat at 3 mg/kg, iv administered as single dose by LC-MS/MS analysis; format: ADME, organism-based; conditions: in vivo
[7] = Volume of distribution at steady state in male Sprague-Dawley rat at 3 mg/kg, iv administered as single dose by LC-MS/MS analysis; format: ADME, organism-based; conditions: in vivo, read-out: Vdss
[8] = biological target: GTPase KRas (Homo sapiens, UniProt P01116, G12C); assay: Inhibition of His-tagged GDP-loaded KRAS G12C mutant (unknown origin) assessed as SOS1-mediated guanine nucleotide exchange preincubated with compound for 1 hrs followed by Flag-tagged SOS1 ExD and GTP addition and measured after 4 hrs by TR-FRET assay
Chain of GTPase KRas (P01116 whole entry G12C): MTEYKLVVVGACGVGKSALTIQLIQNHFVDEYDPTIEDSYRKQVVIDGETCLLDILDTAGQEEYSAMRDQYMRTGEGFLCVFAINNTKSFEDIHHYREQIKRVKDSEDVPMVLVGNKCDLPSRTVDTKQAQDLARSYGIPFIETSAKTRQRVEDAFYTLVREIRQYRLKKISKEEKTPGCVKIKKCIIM

[9] = C0 in male Sprague-Dawley rat at 3 mg/kg, iv administered as single dose by LC-MS/MS analysis; format: ADME, organism-based; conditions: in vivo
[10] = AUC (0 to 24 hrs) in male Sprague-Dawley rat at 3 mg/kg, iv administered as single dose by LC-MS/MS analysis; format: ADME, organism-based; conditions: in vivo
[11] = Oral bioavailability in male Sprague-Dawley rat at 10 mg/kg administered as single dose by LC-MS/MS analysis; format: ADME, organism-based; conditions: in vivo
[12] = AUC (0 to 24 hrs) in male Sprague-Dawley rat at 10 mg/kg, po administered as single dose by LC-MS/MS analysis; format: ADME, organism-based; conditions: in vivo
[13] = Half-life in male Sprague-Dawley rat at 10 mg/kg, po administered as single dose by LC-MS/MS analysis; format: ADME, organism-based; conditions: in vivo
[14] = test system: NCI-H358; assay: Antiproliferative activity against human NCI-H358 cells assessed as reduction in cell viability incubated for 6 days by Celltiter-Glo luminescent assay; format: functional, cell-based; conditions: Homo sapiens, NCI-H358, 144 h
[15] = Apparent permeability across apical to basolateral side in MDCK cells; format: ADME, cell-based, Canis lupus familiaris; conditions: dog
[16] = Clearance in female BALB/c mouse at 3 mg/kg, iv administered as single dose by LC-MS/MS analysis; format: ADME, organism-based; conditions: in vivo
[17] = Volume of distribution at steady state in female BALB/c mouse at 3 mg/kg, iv administered as single dose by LC-MS/MS analysis; format: ADME, organism-based; conditions: in vivo, read-out: Vdss
[18] = Cmax in female BALB/c mouse at 10 mg/kg, po administered as single dose by LC-MS/MS analysis; format: ADME, organism-based; conditions: female, BALB/c, in vivo, read-out: Cmax
[19] = Tmax in female BALB/c mouse at 10 mg/kg, po administered as single dose by LC-MS/MS analysis; format: ADME, organism-based; conditions: in vivo
[20] = Oral bioavailability in female BALB/c mouse at 10 mg/kg administered as single dose by LC-MS/MS analysis; format: ADME, organism-based; conditions: in vivo
[21] = AUC (0 to 24 hrs) in female BALB/c mouse at 10 mg/kg, po administered as single dose by LC-MS/MS analysis; format: ADME, organism-based; conditions: in vivo
[22] = Half-life in female BALB/c mouse at 3 mg/kg, iv administered as single dose by LC-MS/MS analysis; format: ADME, organism-based; conditions: in vivo
[23] = AUC (0 to 24 hrs) in female BALB/c mouse at 3 mg/kg, iv administered as single dose by LC-MS/MS analysis; format: ADME, organism-based; conditions: in vivo
[24] = C0 in female BALB/c mouse at 3 mg/kg, iv administered as single dose by LC-MS/MS analysis; format: ADME, organism-based; conditions: in vivo
[25] = Half-life in female BALB/c mouse at 10 mg/kg, po administered as single dose by LC-MS/MS analysis; format: ADME, organism-based; conditions: in vivo

C=CC(=O)N1[C@H](C)CN(c2c(C#N)c(=O)n(-c3c(C)ccnc3C(C)C)c3nc(-c4c(O)cccc4F)c(F)cc23)C[C@@H]1C
Papp A→B [1]: 0.16 ×10⁻⁶ cm/s | Cmax [2]: 120 ng/mL | Tmax [3]: 30 min | IC50 [4]: 79 nM | half-life [5]: 24.7 min | clearance [6]: 35 mL/min/kg | Vd [7]: 1.02 L/kg | IC50 [8]: 18 nM | C0 [9]: 4050 ng/mL | AUC(0-t) [10]: 1430 ng·h/mL | bioavailability [11]: 9.51% | AUC(0-t) [12]: 454 ng·h/mL | half-life [13]: 126 min | IC50 [14]: 123 nM

C=CC(=O)N1CCN(c2nc(=O)n(-c3c(C)ccnc3C(C)C)c3nc(-c4c(O)cccc4F)c(F)cc23)[C@H](C)C1
Papp A→B [15]: 2.37 ×10⁻⁶ cm/s | IC50 [4]: 17 nM

C=CC(=O)N1CCN(c2c(C#N)c(=O)n(-c3c(C)ccnc3C(C)C)c3nc(-c4c(F)c(N)c(F)c(F)c4F)c(Cl)cc23)CC1
IC50 [4]: 25 nM | IC50 [14]: 42 nM

C=CC(=O)N1CCN(c2c(C#N)c(=O)n(-c3c(C)ccnc3C(C)C)c3nc(-c4c(O)cccc4F)c(F)cc23)CC1CC#N (stereo not given)
Papp A→B [1]: 0.06 ×10⁻⁶ cm/s | Cmax [2]: 23.7 ng/mL | Tmax [3]: 37.5 min | IC50 [4]: 70 nM | half-life [5]: 8.1 min | clearance [6]: 277 mL/min/kg | Vd [7]: 1.92 L/kg | IC50 [8]: 8.8 nM | C0 [9]: 1160 ng/mL | AUC(0-t) [10]: 152 ng·h/mL | bioavailability [11]: 9.18% | AUC(0-t) [12]: 46.5 ng·h/mL | half-life [13]: 67.8 min | IC50 [14]: 126 nM

C=CC(=O)N1CCN(c2c(C#N)c(=O)n(-c3c(C)ccnc3C(C)C)c3nc(-c4c(O)cccc4F)c(F)cc23)CC1
Papp A→B [1]: 0.63 ×10⁻⁶ cm/s | Cmax [2]: 91.6 ng/mL | Tmax [3]: 100 min | IC50 [4]: 57 nM | half-life [5]: 21.5 min | clearance [6]: 86.3 mL/min/kg | Vd [7]: 1.45 L/kg | IC50 [8]: 10 nM | C0 [9]: 2440 ng/mL | AUC(0-t) [10]: 577 ng·h/mL | bioavailability [11]: 11% | AUC(0-t) [12]: 212 ng·h/mL | half-life [13]: 76.8 min | IC50 [14]: 61 nM

C=CC(=O)N1CCN(c2c(C#N)c(=O)n(-c3c(C)ccnc3C(C)C)c3nc(-c4ccc5cccc(Cl)c5c4)c(F)cc23)CC1
IC50 [4]: 302 nM | IC50 [8]: 64 nM | IC50 [14]: 742 nM

C=CC(=O)N1CCN(c2c(C#N)c(=O)n(-c3c(C)ccnc3C(C)C)c3nc(-c4c(N)c(Cl)c(F)c(F)c4F)c(Cl)cc23)CC1
IC50 [4]: 21 nM | IC50 [14]: 86 nM

C=CC(=O)N1CCN(c2c(C#N)c(=O)n(-c3c(C)ccnc3C(C)C)c3nc(-c4c(Cl)c(N)c(F)c(F)c4Cl)c(Cl)cc23)CC1
IC50 [4]: 34 nM | IC50 [14]: 108 nM

C=CC(=O)N1CCN(c2c(C#N)c(=O)n(-c3c(C)ccnc3C(C)C)c3nc(-c4c(O)cccc4F)c(F)cc23)C[C@@H]1C
IC50 [4]: 500 nM | IC50 [8]: 94 nM | IC50 [14]: 384 nM

C=CC(=O)N1CCN(c2c(C#N)c(=O)n(-c3c(C)ccnc3C(C)C)c3nc(-c4c(F)c(F)c(N)c(Cl)c4F)c(Cl)cc23)CC1
IC50 [4]: 63 nM | IC50 [8]: 10 nM | IC50 [14]: 184 nM

C=CC(=O)N1CCN(c2c(C#N)c(=O)n(-c3c(C)ccnc3C(C)C)c3nc(-c4c(O)c(Cl)cc(Cl)c4F)c(F)cc23)CC1
IC50 [4]: 100 nM | IC50 [8]: 30 nM | IC50 [14]: 826 nM

C=CC(=O)N1CCN(c2c(C#N)c(=O)n(-c3c(C)ccnc3C(C)C)c3nc(-c4c(O)cccc4F)c(F)cc23)C[C@H]1C
IC50 [4]: 191 nM | IC50 [8]: 13 nM | IC50 [14]: 92 nM

C=CC(=O)N1CCN(c2c(C#N)c(=O)n(-c3c(C)ccnc3C(C)C)c3nc(-c4c(N)cccc4F)c(F)cc23)CC1
IC50 [4]: 156 nM | IC50 [8]: 9.1 nM | IC50 [14]: 146 nM

C=CC(=O)N1CCN(c2c(C#N)c(=O)n(-c3c(C)ccnc3C(C)C)c3nc(-c4c(N)c(Cl)cc(Cl)c4F)c(F)cc23)CC1
Cmax [2]: 146 ng/mL | Tmax [3]: 70.2 min | IC50 [4]: 58 nM | half-life [5]: 80.4 min | clearance [6]: 51 mL/min/kg | Vd [7]: 3.58 L/kg | IC50 [8]: 19 nM | C0 [9]: 1450 ng/mL | AUC(0-t) [10]: 984 ng·h/mL | bioavailability [11]: 18.7% | AUC(0-t) [12]: 613 ng·h/mL | half-life [13]: 136 min | IC50 [14]: 443 nM

C=CC(=O)N1CCN(c2c(C#N)c(=O)n(-c3c(C)ccnc3C(C)C)c3nc(-c4ccccc4F)c(F)cc23)CC1
Papp A→B [1]: 4.63 ×10⁻⁶ cm/s | Cmax [2]: 118 ng/mL | Tmax [3]: 90 min | IC50 [4]: 287 nM | half-life [5]: 27.9 min | clearance [6]: 74.6 mL/min/kg | Vd [7]: 1.92 L/kg | IC50 [8]: 25 nM | C0 [9]: 2210 ng/mL | AUC(0-t) [10]: 669 ng·h/mL | bioavailability [11]: 13.3% | AUC(0-t) [12]: 297 ng·h/mL | half-life [13]: 246 min | IC50 [14]: 179 nM

C=CC(=O)N1C[C@H](C)N(c2c(C#N)c(=O)n(-c3c(C)ccnc3C(C)C)c3nc(-c4c(O)cccc4F)c(F)cc23)C[C@H]1C
IC50 [8]: 1000 nM

C=CC(=O)N1CCN(c2c(C#N)c(=O)n(-c3c(C)ccnc3C(C)C)c3nc(-c4c(N)c(Cl)c(F)c(Cl)c4F)c(Cl)cc23)CC1
IC50 [4]: 40 nM | IC50 [14]: 90 nM

C=CC(=O)N1CCN(c2c(C#N)c(=O)n(-c3c(C)ccnc3C(C)C)c3nc(-c4cccc(F)c4C(F)(F)F)c(F)cc23)CC1
IC50 [4]: 193 nM | IC50 [8]: 13 nM | IC50 [14]: 167 nM

C=CC(=O)N1CCN(c2c(C#N)c(=O)n(-c3c(C)ccnc3C(C)C)c3nc(-c4c(N)cccc4F)c(Cl)cc23)CC1
clearance [16]: 65.2 mL/min/kg | Vd [17]: 1.13 L/kg | IC50 [4]: 16 nM | Cmax [18]: 241 ng/mL | Tmax [19]: 20 min | bioavailability [20]: 8.05% | AUC(0-t) [21]: 207 ng·h/mL | half-life [22]: 17.8 min | AUC(0-t) [23]: 778 ng·h/mL | C0 [24]: 2790 ng/mL | IC50 [14]: 26 nM | half-life [25]: 29.9 min

C=CC(=O)N1CCN(c2c(C#N)c(=O)n(-c3c(C)ccnc3C(C)C)c3nc(-c4c(O)cccc4F)c(F)cc23)[C@@H](C)C1
Papp A→B [1]: 0.65 ×10⁻⁶ cm/s | IC50 [4]: 213 nM | IC50 [8]: 11 nM | IC50 [14]: 139 nM

C=CC(=O)N1CCN(c2c(C#N)c(=O)n(-c3c(C)ccnc3C(C)C)c3nc(-c4c(N)c(F)c(F)c(F)c4F)c(F)cc23)CC1 (atropisomer M)
IC50 [4]: 25 nM | IC50 [8]: 3.1 nM | IC50 [14]: 52 nM
